Data taken from patent US9707229B2, “Compositions and methods for treating an infection” (CMPD LICENSING, LLC, priority 2015, dated 2017).

Columns and labels:
Assay type in all cases: cell-based
[1] = test system: Staphylococcus aureus (MSSA); test: Expected efficacy of antibiotic agents; conditions: Gram: pos
[2] = test system: Shigella boydii; test: Expected efficacy of antibiotic agents; conditions: Gram: neg
[3] = test system: Enterobacter aerogenes; test: Expected efficacy of antibiotic agents; conditions: Gram: neg
[4] = test system: Escherichia coli; test: Expected efficacy of antibiotic agents; conditions: Gram: neg
[5] = test system: Providencia stuartii; test: Expected efficacy of antibiotic agents; conditions: Gram: neg
[6] = test system: Shigella dysenteriae; test: Expected efficacy of antibiotic agents; conditions: Gram: neg
[7] = test system: Yersinia pestis; conditions: expected efficacy; Gram: neg
[8] = test system: Clostridium perfringens; conditions: expected efficacy; Gram: anaer
[9] = test system: Klebsiella (Calymmatobacterium) granulomatis; test: Expected efficacy of antibiotic agents; conditions: Gram: neg
[10] = test system: Citrobacter freundii; test: Expected efficacy of antibiotic agents; conditions: Gram: neg
[11] = test system: Chlamydia trachomatis; test: Expected efficacy of antibiotic agents; conditions: Gram: n/a
[12] = test system: Pseudomonas aeruginosa; test: Expected efficacy of antibiotic agents; conditions: Gram: neg
[13] = test system: Neisseria gonorrhoeae; test: Expected efficacy of antibiotic agents; conditions: Gram: neg
[14] = test system: Methicillin resistant staph aureus (MRSA); test: Expected efficacy of antibiotic agents; conditions: Gram: pos
[15] = test system: Acinetobacter lwoffii; test: Expected efficacy of antibiotic agents; conditions: Gram: neg
[16] = test system: Shigella flexneri; test: Expected efficacy of antibiotic agents; conditions: Gram: neg
[17] = test system: Bordetella pertussis; test: Expected efficacy of antibiotic agents; conditions: Gram: neg
[18] = test system: Serratia marcescens; test: Expected efficacy of antibiotic agents; conditions: Gram: neg
[19] = test system: Viridans group streptococci; test: Expected efficacy of antibiotic agents; conditions: Gram: pos
[20] = test system: Proteus mirabilis; test: Expected efficacy of antibiotic agents; conditions: Gram: neg
[21] = test system: Clostridium difficile; test: Expected efficacy of antibiotic agents; conditions: Gram: anaer
[22] = test system: Rickettsiae; conditions: expected efficacy; Gram: neg
[23] = test system: Diphtheroids; test: Expected efficacy of antibiotic agents; conditions: Gram: pos
[24] = test system: Haemophilus influenzae; test: Expected efficacy of antibiotic agents; conditions: Gram: neg
[25] = test system: Haemophilus parainfluenzae; test: Expected efficacy of antibiotic agents; conditions: Gram: neg
[26] = test system: Corynebacterium jeikeium; test: Expected efficacy of antibiotic agents; conditions: Gram: pos
[27] = test system: Enterobacter cloacae; test: Expected efficacy of antibiotic agents; conditions: Gram: neg
[28] = test system: Mycoplasma pneumoniae; test: Expected efficacy of antibiotic agents; conditions: Gram: n/a
[29] = test system: Citrobacter diversus; test: Expected efficacy of antibiotic agents; conditions: Gram: neg
[30] = test system: Chlamydia pneumoniae; test: Expected efficacy of antibiotic agents; conditions: Gram: n/a
[31] = test system: Legionella pneumophila; conditions: expected efficacy; Gram: neg
[32] = test system: Enterococcus faecalis; test: Expected efficacy of antibiotic agents; conditions: Gram: pos
[33] = test system: Acinetobacter calcoaceticus; test: Expected efficacy of antibiotic agents; conditions: Gram: neg
[34] = test system: Peptostreptococcus; test: Expected efficacy of antibiotic agents; conditions: Gram: pos
[35] = test system: Proteus vulgaris; test: Expected efficacy of antibiotic agents; conditions: Gram: neg
[36] = test system: Moraxella catarrhalis; test: Expected efficacy of antibiotic agents; conditions: Gram: neg
[37] = test system: Chlamydia psittaci; conditions: expected efficacy; Gram: n/a
[38] = test system: Neisseria meningitidis; test: Expected efficacy of antibiotic agents; conditions: Gram: neg
[39] = test system: Shigella sonnei; test: Expected efficacy of antibiotic agents; conditions: Gram: neg
[40] = test system: Klebsiella oxytoca; test: Expected efficacy of antibiotic agents; conditions: Gram: neg
[41] = test system: Morganella morganii; test: Expected efficacy of antibiotic agents; conditions: Gram: neg
[42] = test system: Salmonella typhi; test: Expected efficacy of antibiotic agents; conditions: Gram: neg
[43] = test system: Streptococcus pyogenes; test: Expected efficacy of antibiotic agents; conditions: Gram: pos
[44] = test system: Klebsiella pneumoniae; test: Expected efficacy of antibiotic agents; conditions: Gram: neg
[45] = test system: Vibrio cholerae; test: Expected efficacy of antibiotic agents; conditions: Gram: neg
[46] = test system: Haemophilus ducreyi; test: Expected efficacy of antibiotic agents; conditions: Gram: neg
[47] = test system: Streptococcus pneumoniae; test: Expected efficacy of antibiotic agents; conditions: Gram: pos
[48] = test system: Streptococcus agalactiae; test: Expected efficacy of antibiotic agents; conditions: Gram: pos
[49] = test system: Providencia rettgeri; test: Expected efficacy of antibiotic agents; conditions: Gram: neg
[50] = test system: Corynebacterium urealyticum; test: Expected efficacy of antibiotic agents; conditions: Gram: pos
[51] = test system: Staphylococcus epidermidis; test: Expected efficacy of antibiotic agents; conditions: Gram: pos
[52] = test system: Bacteroides fragilis; test: Expected efficacy of antibiotic agents; conditions: Gram: anaer
[53] = test system: Campylobacter jejuni; test: Expected efficacy of antibiotic agents; conditions: Gram: neg
[54] = test system: Enterobacter sakazakii; test: Expected efficacy of antibiotic agents; conditions: Gram: neg
[55] = test system: Acinetobacter baumannii; test: Expected efficacy of antibiotic agents; conditions: Gram: neg
[56] = test system: Francisella tularensis; conditions: expected efficacy; Gram: neg
[57] = test system: Enterococcus faecium; test: Expected efficacy of antibiotic agents; conditions: Gram: pos

CO/N=C(\C(=O)N[C@@H]1C(=O)N2C(C(=O)O)=C(CSc3nc(=O)c(=O)[nH]n3C)CS[C@H]12)c1csc(N)n1 [Ceftriaxone]
efficacy against Staphylococcus aureus (MSSA) [1]: yes | efficacy against Shigella boydii [2]: yes | efficacy against Enterobacter aerogenes [3]: yes | efficacy against Escherichia coli [4]: yes | efficacy against Providencia stuartii [5]: yes | efficacy against Shigella dysenteriae [6]: yes | efficacy against Yersinia pestis [7]: no | efficacy against Clostridium perfringens [8]: yes | efficacy against Klebsiella (Calymmatobacterium) granulomatis [9]: yes | efficacy against Citrobacter freundii [10]: yes | efficacy against Chlamydia trachomatis [11]: no | efficacy against Pseudomonas aeruginosa [12]: no | efficacy against Neisseria gonorrhoeae [13]: yes | efficacy against Methicillin resistant staph aureus (MRSA) [14]: no | efficacy against Acinetobacter lwoffii [15]: no | efficacy against Shigella flexneri [16]: yes | efficacy against Bordetella pertussis [17]: no | efficacy against Serratia marcescens [18]: yes | efficacy against Viridans group streptococci [19]: yes | efficacy against Proteus mirabilis [20]: yes | efficacy against Clostridium difficile [21]: no | efficacy against Rickettsiae [22]: no | efficacy against Diphtheroids [23]: no | efficacy against Haemophilus influenzae [24]: yes | efficacy against Haemophilus parainfluenzae [25]: yes | efficacy against Corynebacterium jeikeium [26]: no | efficacy against Enterobacter cloacae [27]: yes | efficacy against Mycoplasma pneumoniae [28]: no | efficacy against Citrobacter diversus [29]: yes | efficacy against Chlamydia pneumoniae [30]: no | efficacy against Legionella pneumophila [31]: no | efficacy against Enterococcus faecalis [32]: no | efficacy against Acinetobacter calcoaceticus [33]: no | efficacy against Peptostreptococcus [34]: yes | efficacy against Proteus vulgaris [35]: yes | efficacy against Moraxella catarrhalis [36]: yes | efficacy against Chlamydia psittaci [37]: no | efficacy against Neisseria meningitidis [38]: yes | efficacy against Shigella sonnei [39]: yes | efficacy against Klebsiella oxytoca [40]: yes | efficacy against Morganella morganii [41]: yes | efficacy against Salmonella typhi [42]: yes | efficacy against Streptococcus pyogenes [43]: yes | efficacy against Klebsiella pneumoniae [44]: yes | efficacy against Vibrio cholerae [45]: no | efficacy against Haemophilus ducreyi [46]: yes | efficacy against Streptococcus pneumoniae [47]: yes | efficacy against Streptococcus agalactiae [48]: yes | efficacy against Providencia rettgeri [49]: yes | efficacy against Corynebacterium urealyticum [50]: no | efficacy against Staphylococcus epidermidis [51]: yes | efficacy against Bacteroides fragilis [52]: yes | efficacy against Campylobacter jejuni [53]: no | efficacy against Enterobacter sakazakii [54]: yes | efficacy against Acinetobacter baumannii [55]: no | efficacy against Francisella tularensis [56]: no | efficacy against Enterococcus faecium [57]: no
